Data taken from ChEMBL document CHEMBL1128729, “Alpha- and beta-adrenoceptors: from the gene to the clinic. 2. Structure-activity relationships and therapeutic applications” (J Med Chem, 1995).
pEC50, pKi: −log10 of the molar value.

How the values were obtained:
Monoamine oxidase = biological target: T1, Monoamine oxidase (Homo sapiens, UniProt P21397+P27338); experiment: Binding affinity for imidazoline receptor I-2; assay type: protein assay
T1 sequence (P21397 whole entry): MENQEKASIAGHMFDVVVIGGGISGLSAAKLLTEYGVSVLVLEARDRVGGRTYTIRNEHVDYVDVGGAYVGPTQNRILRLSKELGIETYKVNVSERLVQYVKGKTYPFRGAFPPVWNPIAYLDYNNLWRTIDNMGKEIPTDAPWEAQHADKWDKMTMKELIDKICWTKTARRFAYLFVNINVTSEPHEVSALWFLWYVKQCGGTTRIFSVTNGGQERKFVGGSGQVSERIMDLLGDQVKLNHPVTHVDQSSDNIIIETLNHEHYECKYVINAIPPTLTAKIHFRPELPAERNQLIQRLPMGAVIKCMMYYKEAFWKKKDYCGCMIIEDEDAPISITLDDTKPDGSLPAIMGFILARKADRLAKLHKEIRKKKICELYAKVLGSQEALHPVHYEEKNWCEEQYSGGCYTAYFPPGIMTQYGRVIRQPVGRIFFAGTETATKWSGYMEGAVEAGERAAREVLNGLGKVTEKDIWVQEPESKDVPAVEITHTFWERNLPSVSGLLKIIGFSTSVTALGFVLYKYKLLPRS
T1 sequence (P27338 whole entry): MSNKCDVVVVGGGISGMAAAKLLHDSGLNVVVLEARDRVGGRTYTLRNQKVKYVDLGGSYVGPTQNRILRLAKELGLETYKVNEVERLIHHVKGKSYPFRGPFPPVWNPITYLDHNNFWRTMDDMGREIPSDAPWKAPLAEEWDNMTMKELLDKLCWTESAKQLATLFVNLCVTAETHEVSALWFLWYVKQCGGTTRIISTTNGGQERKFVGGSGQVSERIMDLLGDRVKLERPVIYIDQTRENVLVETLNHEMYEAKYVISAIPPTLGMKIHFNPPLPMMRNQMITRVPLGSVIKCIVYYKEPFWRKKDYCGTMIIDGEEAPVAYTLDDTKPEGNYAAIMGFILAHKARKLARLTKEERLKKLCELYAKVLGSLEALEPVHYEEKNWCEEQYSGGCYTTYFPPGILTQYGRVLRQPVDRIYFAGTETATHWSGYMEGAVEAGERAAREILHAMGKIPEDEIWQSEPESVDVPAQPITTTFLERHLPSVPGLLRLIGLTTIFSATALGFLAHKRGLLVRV

Nischarin = Nischarin (Homo sapiens, UniProt Q9Y2I1); experiment: Binding affinity for imidazoline receptor I-1
Sequence of Nischarin (Q9Y2I1 whole entry): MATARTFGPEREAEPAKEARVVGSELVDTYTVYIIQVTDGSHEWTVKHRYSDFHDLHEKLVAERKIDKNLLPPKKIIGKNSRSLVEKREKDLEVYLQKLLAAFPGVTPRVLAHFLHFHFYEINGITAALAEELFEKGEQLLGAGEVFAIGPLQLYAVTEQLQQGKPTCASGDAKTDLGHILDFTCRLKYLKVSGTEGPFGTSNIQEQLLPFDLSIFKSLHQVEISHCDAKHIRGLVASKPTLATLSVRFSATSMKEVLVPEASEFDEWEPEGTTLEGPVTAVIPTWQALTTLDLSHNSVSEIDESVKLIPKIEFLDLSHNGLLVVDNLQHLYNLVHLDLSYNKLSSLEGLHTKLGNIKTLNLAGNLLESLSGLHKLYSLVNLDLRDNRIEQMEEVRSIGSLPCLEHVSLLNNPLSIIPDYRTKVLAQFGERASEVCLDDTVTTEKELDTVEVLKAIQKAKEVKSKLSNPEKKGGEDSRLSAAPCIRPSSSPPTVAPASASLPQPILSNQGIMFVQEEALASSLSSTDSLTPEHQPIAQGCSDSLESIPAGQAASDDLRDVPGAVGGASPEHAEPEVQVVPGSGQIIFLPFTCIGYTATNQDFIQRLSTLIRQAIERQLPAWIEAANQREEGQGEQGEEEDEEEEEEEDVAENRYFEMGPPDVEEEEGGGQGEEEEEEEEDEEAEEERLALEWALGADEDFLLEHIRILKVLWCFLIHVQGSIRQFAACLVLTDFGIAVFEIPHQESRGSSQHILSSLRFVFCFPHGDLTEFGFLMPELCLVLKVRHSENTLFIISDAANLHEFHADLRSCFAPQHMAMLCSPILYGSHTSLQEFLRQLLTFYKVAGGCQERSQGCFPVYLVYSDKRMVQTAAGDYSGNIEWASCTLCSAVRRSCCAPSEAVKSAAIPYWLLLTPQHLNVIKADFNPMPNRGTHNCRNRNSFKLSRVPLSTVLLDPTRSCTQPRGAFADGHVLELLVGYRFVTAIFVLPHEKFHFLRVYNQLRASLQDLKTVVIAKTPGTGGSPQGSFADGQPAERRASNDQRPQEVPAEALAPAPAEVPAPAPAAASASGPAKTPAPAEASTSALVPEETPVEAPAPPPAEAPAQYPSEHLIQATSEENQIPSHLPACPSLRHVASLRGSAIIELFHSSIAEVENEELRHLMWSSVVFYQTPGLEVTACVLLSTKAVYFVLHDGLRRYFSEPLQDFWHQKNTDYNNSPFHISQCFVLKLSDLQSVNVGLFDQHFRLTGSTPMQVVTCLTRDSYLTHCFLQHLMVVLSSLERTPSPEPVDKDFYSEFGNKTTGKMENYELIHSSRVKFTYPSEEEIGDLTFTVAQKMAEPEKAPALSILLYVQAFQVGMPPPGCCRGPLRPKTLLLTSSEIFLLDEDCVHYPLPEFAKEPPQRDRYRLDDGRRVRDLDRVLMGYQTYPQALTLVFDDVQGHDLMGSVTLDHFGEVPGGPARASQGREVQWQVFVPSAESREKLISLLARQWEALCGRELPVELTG

[1] = Effective dose for on contraction of rabbit aorta.; assay type: functional, tissue-based
[2] = biological target: Beta-2 adrenergic receptor (Cavia porcellus, UniProt Q8K4Z4); experiment: Activity for Beta-2 adrenergic receptor was assessed from effect on relaxation of guinea pig trachea.; assay type: functional
Sequence of Beta-2 adrenergic receptor (Q8K4Z4 whole entry): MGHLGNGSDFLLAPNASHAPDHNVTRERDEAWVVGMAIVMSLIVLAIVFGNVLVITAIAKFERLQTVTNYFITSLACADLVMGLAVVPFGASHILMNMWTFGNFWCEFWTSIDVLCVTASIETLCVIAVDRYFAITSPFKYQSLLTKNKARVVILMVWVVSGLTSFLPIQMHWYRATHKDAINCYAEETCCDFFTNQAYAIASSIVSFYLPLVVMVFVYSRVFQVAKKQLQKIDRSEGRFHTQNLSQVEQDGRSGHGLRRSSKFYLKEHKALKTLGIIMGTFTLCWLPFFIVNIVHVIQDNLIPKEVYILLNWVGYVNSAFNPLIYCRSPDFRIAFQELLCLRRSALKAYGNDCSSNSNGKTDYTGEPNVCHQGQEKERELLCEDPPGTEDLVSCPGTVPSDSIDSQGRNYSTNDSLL

[3] = Effective concentration for inhibition of neurotransmission in field-stimulated, reserpine-pretreated guinea pig ileum.; assay type: functional, tissue-based
[4] = Effective dose for compound on contraction of reserpine-pretreated guinea pig aorta.; assay type: functional, tissue-based
[5] = biological target: T2, Adrenergic receptor alpha-1 (Rattus norvegicus, UniProt P15823+P23944+P43140); experiment: Effective dose for contraction of reserpine-pretreated rat vas deferens.; assay type: functional
T2 sequence (P15823 whole entry): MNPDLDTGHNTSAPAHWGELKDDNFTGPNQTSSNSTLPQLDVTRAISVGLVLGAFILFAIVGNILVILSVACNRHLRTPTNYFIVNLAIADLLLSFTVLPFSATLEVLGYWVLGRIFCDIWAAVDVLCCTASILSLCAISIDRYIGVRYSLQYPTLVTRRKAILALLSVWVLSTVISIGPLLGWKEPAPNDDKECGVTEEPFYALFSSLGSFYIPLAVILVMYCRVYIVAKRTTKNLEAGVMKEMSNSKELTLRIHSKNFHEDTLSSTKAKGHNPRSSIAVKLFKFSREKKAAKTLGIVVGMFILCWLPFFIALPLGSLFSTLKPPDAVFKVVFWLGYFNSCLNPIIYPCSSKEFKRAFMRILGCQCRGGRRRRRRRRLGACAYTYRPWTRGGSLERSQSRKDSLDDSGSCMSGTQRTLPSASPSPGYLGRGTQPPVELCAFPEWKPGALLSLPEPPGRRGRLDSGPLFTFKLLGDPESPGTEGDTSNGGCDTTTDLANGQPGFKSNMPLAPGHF
T2 sequence (P23944 whole entry): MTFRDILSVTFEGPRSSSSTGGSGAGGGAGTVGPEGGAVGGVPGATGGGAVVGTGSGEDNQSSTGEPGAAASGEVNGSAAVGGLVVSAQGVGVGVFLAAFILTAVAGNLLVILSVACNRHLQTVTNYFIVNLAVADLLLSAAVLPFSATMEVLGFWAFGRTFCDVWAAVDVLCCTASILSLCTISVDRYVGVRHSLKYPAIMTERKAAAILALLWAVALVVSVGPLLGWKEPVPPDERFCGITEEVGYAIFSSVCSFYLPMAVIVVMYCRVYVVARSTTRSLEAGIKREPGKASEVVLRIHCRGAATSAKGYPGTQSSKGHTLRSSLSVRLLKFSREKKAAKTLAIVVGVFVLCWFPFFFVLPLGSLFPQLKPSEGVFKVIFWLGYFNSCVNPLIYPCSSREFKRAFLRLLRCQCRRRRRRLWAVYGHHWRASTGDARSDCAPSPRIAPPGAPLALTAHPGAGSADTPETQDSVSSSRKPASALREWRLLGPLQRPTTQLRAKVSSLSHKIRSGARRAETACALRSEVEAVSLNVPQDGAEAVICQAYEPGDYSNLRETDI
T2 sequence (P43140 whole entry): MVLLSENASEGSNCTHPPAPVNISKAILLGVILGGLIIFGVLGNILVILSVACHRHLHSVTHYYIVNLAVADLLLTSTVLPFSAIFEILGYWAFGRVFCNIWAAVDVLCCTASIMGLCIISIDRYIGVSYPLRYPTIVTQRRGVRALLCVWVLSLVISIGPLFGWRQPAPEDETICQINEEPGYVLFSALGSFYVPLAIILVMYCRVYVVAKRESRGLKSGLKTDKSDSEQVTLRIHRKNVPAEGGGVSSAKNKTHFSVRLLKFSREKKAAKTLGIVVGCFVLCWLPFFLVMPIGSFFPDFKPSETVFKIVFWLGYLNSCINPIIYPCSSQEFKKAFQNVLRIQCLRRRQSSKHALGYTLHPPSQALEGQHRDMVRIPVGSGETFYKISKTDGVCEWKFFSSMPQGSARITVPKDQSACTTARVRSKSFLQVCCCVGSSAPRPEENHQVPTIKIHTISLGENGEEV

[6] = Effective dose for inhibition of neurotransmission in field-stimulated, reserpine-pretreated guinea pig ileum.; assay type: functional, tissue-based
[7] = Effective dose for contraction of reserpine-pretreated guinea pig aorta.; assay type: functional, tissue-based
[8] = Effective dose for contraction of rabbit aorta.; assay type: functional, tissue-based
[9] = Activity for Alpha-1 adrenergic receptor was assessed from effect on inhibition of neurotransmission in field-stimulated, reserpine-pretreated guinea pig ileum.; assay type: functional, tissue-based
[10] = Activity for Alpha-1 adrenergic receptor was assessed from effect on contraction of reserpine-pretreated guinea pig ileum; assay type: functional, tissue-based

## Clc1cccc(Cl)c1NC1=NCCN1 [CLONIDINE]
Monoamine oxidase
  Ki: > 0.1 µM
Nischarin
  pKi: > 8.00

## NCC(O)c1ccc(O)c(O)c1 (single isomer, unassigned) [NOREPINEPHRINE]
[1]
  pEC50: 5.70
[2]
  pEC50: 4.52
[3]
  pEC50: 4.84
[4]
  pEC50: 4.92

## C[C@H](N)[C@H](O)c1ccc(O)c(O)c1 [LEVONORDEFRIN]
[3]
  pEC50: 7.72
[5]
  EC50: 0.776 µM

## NC[C@H](O)c1ccc(O)c(O)c1 [NOREPINEPHRINE]
[6]
  pEC50: 7.52
[7]
  pEC50: 6.95
[2]
  pEC50: 6.67
[8]
  pEC50: 8.18

## C[C@@H](N)[C@@H](O)c1ccc(O)c(O)c1
[9]
  pEC50: 5.00
[10]
  pEC50: 4.33
